The test system of experiment [1] is angiogenesis (vascular density) in air pouch granuloma. The experiment can be described thus: Murine air pouch granuloma model of inflammatory angiogenesis. It counts as in vivo, mice. The following applies: positive control. An excerpt: Measurement of Angiogenesis In Vivo—Murine Air Pouch Granuloma Model:
The murine airpouch granuloma model of chronic inflammation (Kimura et al., 1985, J. Pharmacobio-Dyn., 8:393–400; Colville-Nash et al., 1995, J. Pharm. and Exp. Ther., 274:1463–1472) whose disclosure is incorporated herein by reference in its entirety, is characterized by inflammatory cell influx, fibrous tissue proliferation and intense angiogenesis. […] In addition, angiogenesis can be accurately quantitated by a vascular casting method.
Day 1, mice are anesthetized using Aerrane (isoflurane) gas (5%) or other approved methods, after which 3 mls of air is injected into the dorsal subcutaneous tissue using a 27 g needle. Mice are allowed to recover. […]
When the granuloma is removed it is weighed and then dried for 3 days at 45° C. and reweighed. […] The carmine content is then determined against a carmine red standard curve (0.5 to 2 mg/ml) generated in extracted tissue from non carmine treated animals and read at 490 nm. Sample and standard values are determined typically using DeltaSoft Elisa analysis software (Biometallics Inc., Princeton, N.J.). […]
The effect of compounds on vascular density was typically measured for 6 days after induction of the granuloma. This time point has been determined to be at or near the peak of angiogenesis. […] Medroxyprogesterone had no effect on granuloma size as measured by dry weight.

The target of a further experiment is T1, Tie2 kinase (Homo sapiens, UniProt Q02763).
T1 construct: a baculovirus expressed GST fusion for Tie2 kinase domain was constructed and expressed using the commercial vector pAcG I (Pharmingen); GST; made in house
T1 sequence (Q02763 824-1096 limits assumed): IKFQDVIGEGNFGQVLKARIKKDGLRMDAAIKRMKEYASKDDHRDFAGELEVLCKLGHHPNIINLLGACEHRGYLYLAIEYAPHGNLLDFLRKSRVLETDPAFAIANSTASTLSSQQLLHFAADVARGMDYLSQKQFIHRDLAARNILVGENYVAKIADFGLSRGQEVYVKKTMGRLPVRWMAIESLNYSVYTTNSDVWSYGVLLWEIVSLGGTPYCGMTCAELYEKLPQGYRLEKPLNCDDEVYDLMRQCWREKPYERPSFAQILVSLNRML
The experiment can be described thus: Tie2 kinase autophosphorylation flashplate assay. It counts as biochemical. The following applies: ATP final 30 uM. From the text: A partial cDNA clone for the Tie2 receptor was used to make protein for Tie kinase studies. In order to generate the primary screening assay, a baculovirus expressed GST fusion for Tie2 kinase domain was constructed and expressed using the commercial vector pAcG I (Pharmingen).
This final construct was transfected into Baculovirus and soluble GST fusion products used in the screening assay.
Tie2 kinase activity assay: The Tie2 kinase activity assay was typically run in one of 2 ways described as follows. Minor variations in the assay give similar results.
1. Autophosphorylation flashplate assay
Kinase buffer (final 20 mM Tris-HCl, pH7.0, 100 mM NaCl, 12 mM MgCl2, 1 mM DTT).
Gamma ^33p-ATP (usually final amount of 0.5–1 uCi/well)
ATP (final 30 uM, or other desired concentration)
Flashplate (96-well, polystyrene microplate with plastic scintillator coated wells)
TopCount (microplate scintillation counter)
Turn on incubator shaker and adjust temperature to 30° C.
Add 20 ul of 3× kinase buffer per well to the Flashplate
Add 20 ul of protein per well except for background. Compounds added, typically in DMSO stocks, at 1–2 ul.
Add 20 ul mixture of gamma ^33p-ATP and cold ATP per well.
Cover with transparent polyester film.
Incubate at 30° C. for two hours in shaker, or desired time. […]
Read plate on TopCount or other counting instrument. Results are calculated as % inhibition […]

The target of another experiment is T2, activated tie 2 kinase (Homo sapiens, UniProt Q02763).
T2 construct: a baculovirus expressed GST fusion for Tie2 kinase domain was constructed and expressed using the commercial vector pAcG I (Pharmingen); GST; made in house
T2 sequence (Q02763 824-1096 limits assumed): as above
As to the kind of experiment: Fluorescence polarization for Tie 2 kinase. The note with it: fluorescence polarization assay, 250 uM ATP, 10 uM peptide substrate. Format: biochemical. Here is the method: 2. Fluorescence Polarization for Tie 2 Kinase
2% DMSO (when screening compounds)
activated tie 2 kinase * see activation protocol below
For a 50 ul reaction add the following to each well of a 96-well black half-area plate (Costar, cat# 3694) • 1.5 ul of compound in 20% DMSO • 5 ul 9× kinase buffer. • 5 ul 2.5 mM ATP. • 5 ul 100 uM peptide substrate. • 25 ul PTK detection mix (Panvera, P-2652, 50 ml—UK distributor is Cambridge Bioscience) • 5 ul activated tie 2 kinase (protocol below) diluted in 1× buffer to initiate the reaction. • 7. Read polarization on an FP instrument cycling for 30–50 minutes in accordance with enzyme activity.
Activation of Tie 2 Kinase Protocol:
• 1. Incubate 5 uM tie 2 kinase in the 300 uM ATP and the buffering conditions described above. • 2. Allow to incubate at 27° C. for 2 hours. • 3. Add 2.5 ml reaction to a NAP-25 desalting column (Pharmacia Biotech cat. no. 17-0852-02) pre-equilibrated in 20 mM Tris-HCl pH 7.5, 100 mM NaCl2 to separate the ATP from the enzyme. • 4. Elute the enzyme with 5.0 ml 20 mM Tris-HCl pH 7.5, 100 mM NaCl2; the protein concentration should be 2.5 uM at this point. • 5. Aliquot out the enzyme and store at −80° C. as soon as possible. B. Measurement of Tie2 Receptor Signal Transduction—a Cellular Assay
(In general: Fluorescence polarisation rises when a labelled molecule tumbles more slowly, as on binding a larger partner.)

For the molecule medroxyprogesterone, the “maximum reduction (vascular density)” value in experiment [1] (measured 6 days after induction of the granuloma) came out at 50%. The “effect on granuloma size as measured by dry weight” value in experiment [1] (murine air pouch granuloma) is given as “no effect”.
On to `COc1ccc2cc(-c3nc(C(C)(C)CNC(=O)OC(C)(C)C)[nH]c3-c3ccncc3)ccc2c1` [Example 1, (2-(4-(6-methoxynapthalen-2-yl)-5-pyridin-4-yl-1H-imidazol-2-yl)-2-methyl-propyl)-carbamic acid tert-butyl ester], for which the IC50 against Tie2 kinase and at activated tie 2 kinase was under 1000 nM in each case.

By IC50 is commonly meant the point on the concentration scale where inhibition reaches its midpoint. Read a low IC50 as higher potency.

These data come from US7189745B1, “Compounds” (SmithKline Beecham Corporation, priority 1999, dated 2007).
